Experimental data from PubChem BioAssay (NCI).
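Method: 48-hour compound exposure of cells in 96-well plates, five concentrations, linear interpolation of endpoints. Here, GI50 denotes the concentration required for 50% inhibition of growth. Definition used: TGI = concentration required for complete inhibition of growth.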

Experiments:
Experiment in all cases: NCI tumour cell line growth inhibition, 48 h
[1] = test system: SK-OV-3 ovarian
[2] = test system: K-562 leukemia
[3] = test system: SF-268 CNS
[4] = test system: U251 CNS
[5] = test system: LOX IMVI melanoma
[6] = test system: OVCAR-8 ovarian
[7] = test system: UACC-257 melanoma
[8] = test system: SF-539 CNS

Structure (SMILES) | GI50 [1] | TGI [1] | GI50 [2] | TGI [2] | GI50 [3] | TGI [3] | GI50 [4] | TGI [4] | GI50 [5] | TGI [5] | GI50 [6] | TGI [6] | GI50 [7] | TGI [7] | GI50 [8] | TGI [8]
Cn1cc(C2=C(c3cc[nH]c3)C(=O)NC2=O)c2ccccc21 | > 23.3 µM | > 25 µM | > 25 µM | > 25 µM | > 25 µM | > 25 µM | > 25 µM | > 25 µM | > 25 µM | > 25 µM | > 25 µM | > 25 µM | > 25 µM | > 25 µM | > 25 µM | > 25 µM
Cc1nc2sc(C(=O)Nc3ccccc3)c(N)c2cc1C(O)c1ccccc1 (centres undefined) | 0.523 µM | 38.5 µM | 0.0933 µM | > 59.2 µM | 0.917 µM | > 100 µM | 0.292 µM | > 100 µM | 0.382 µM | > 41.1 µM | 0.408 µM | > 100 µM | 4.21 µM | > 52 µM | 0.219 µM | 0.638 µM
Cn1c2c(c3ccccc3c1=O)C(=O)c1ccccc1-2 | – | > 100 µM | – | > 100 µM | – | > 100 µM | – | > 100 µM | – | > 100 µM | – | > 100 µM | – | > 100 µM | – | 59.1 µM
CNCC(=O)NC(CO)C(=O)NC(CO)C(=O)NC1C(C(N)=O)OC(n2ccc(N)nc2=O)C(O)C1O (centres undefined) | 7.66 mg/L | 41.7 mg/L | > 50 mg/L | > 50 mg/L | 1.95 mg/L | 15.6 mg/L | 10.9 mg/L | > 50 mg/L | 2.43 mg/L | 15.9 mg/L | 12.4 mg/L | > 50 mg/L | 13.7 mg/L | > 50 mg/L | 5.01 mg/L | 28.7 mg/L
COC(=O)c1c2c(c(C)[n+]([O-])c1C)C(=O)C(NCc1ccc(F)cc1)=CC2=O | 2.92 µM | 9.11 µM | 2.43 µM | > 100 µM | 2.51 µM | 9.08 µM | 1.81 µM | 5.14 µM | 1.94 µM | 6.32 µM | 1.59 µM | 7.78 µM | 0.845 µM | 2.44 µM | 1.72 µM | 3.15 µM
CC1=NN(c2cccc(Cl)c2)C(=O)/C1=C\C=C\c1ccccc1 | 3.21 µM | 9.93 µM | 2.88 µM | > 100 µM | 2.36 µM | 6.91 µM | 1.78 µM | 4.42 µM | 1.48 µM | 3.15 µM | 2.63 µM | 9.44 µM | 2.13 µM | 7.26 µM | 2.5 µM | 6.12 µM
Cc1nn(Cc2ccccc2)cc1C(=O)Nc1sc2c(c1C(N)=O)CCC(=O)C2 | 2.7 µM | 9.22 µM | 1.7 µM | 13.1 µM | 3.12 µM | 21.8 µM | 2.62 µM | > 100 µM | 1.78 µM | 3.79 µM | 3.27 µM | > 100 µM | 2.16 µM | 6.24 µM | 1.36 µM | 3.02 µM
Cc1cc2c3c([n+](C)c4ccc(F)cc4c3c1)-c1cc(F)ccc1N2C | 64.7 µM | > 100 µM | 4.74 µM | > 100 µM | 2.42 µM | 14.8 µM | 1.69 µM | > 100 µM | 20.7 µM | 68.6 µM | 15.2 µM | > 100 µM | 6.2 µM | 30.5 µM | 3.28 µM | 20.6 µM
[Cl][Hg][c]1ccc2ccccc2c1 | 3.87 µM | 9.44 µM | 0.862 µM | 9.77 µM | 2.22 µM | 5.91 µM | 1.31 µM | 2.68 µM | 0.284 µM | 1.97 µM | 2.32 µM | 6.17 µM | 1.97 µM | 4.33 µM | 2.02 µM | 4.73 µM
CN(C)c1cc2c(Nc3ccc4c(cnn4Cc4ccccc4)c3)ncnc2cn1 | 0.104 µM | > 25 µM | 9.66 µM | > 25 µM | > 24.1 µM | > 25 µM | 7.8 µM | 24.4 µM | 8.32 µM | > 25 µM | 9.13 µM | > 25 µM | 13.2 µM | > 25 µM | 10.1 µM | > 25 µM
O=C(N/N=C/c1cc(Cl)ccc1O)c1ccccc1Nc1ccnc(C(F)(F)F)c1 | 0.55 µM | 19.1 µM | 0.686 µM | 14.5 µM | 0.37 µM | 14.7 µM | 0.335 µM | 9.41 µM | 0.263 µM | 12 µM | 0.493 µM | 15.5 µM | 1.43 µM | 7.54 µM | 0.721 µM | 8.19 µM
CC(C)(O)CCc1cccc(C(=O)c2cnn(-c3ccc(F)cc3)c2N)c1 | > 25 µM | > 25 µM | > 25 µM | > 25 µM | > 25 µM | > 25 µM | > 25 µM | > 25 µM | > 25 µM | > 25 µM | > 25 µM | > 25 µM | > 25 µM | > 25 µM | > 25 µM | > 25 µM
